System: ADP-stimulated platelets
Assay: ADP-stimulated platelet aggregation assay (gel-filtered human platelets)
Format: cell-based
Details: ADP-stimulated gel-filtered human platelets (2×10^8 per ml), fibrinogen 100 ug/ml, Ca^2+ 1 mM, 10 mM ADP, 37° C., read-out: IC50 (inhibition of aggregation by 50% relative to a control)
Description: The activity of these fibrinogen receptor antagonists is illustrated below. One test used to evaluate fibrinogen receptor antagonist activity is based on evaluation of inhibition of ADP-stimulated platelets. Aggregation requires that fibrinogen bind to and occupy the platelet fibrinogen receptor site. Inhibitors of fibrinogen binding inhibit aggregation. In the ADP-stimulated platelet aggregation assay used to determine inhibition associated with these fibrinogen receptor antagonists, human platelets are isolated from fresh blood, collected into acid citrate/dextrose by differential centrifugation followed by gel filtration on Sepharose 2B in divalent ion-free Tyrode's buffer (pH 7.4) containing 2% bovine serum albumin.
Platelet aggregation is measured at 37° C. in a Chronolog aggregometer. The reaction mixture contains gel-filtered human platelets (2×10^8 per ml), fibrinogen (100 micrograms per ml (ug/ml)), Ca^2+ (1 mM), and the fibrinogen receptor antagonists tested. The aggregation is initiated by adding 10 mM ADP 1 minute after the other components are added. The reaction is then allowed to proceed for at least 2 minutes. The extent of inhibition of aggregation is expressed as the percentage of the rate of aggregation observed in the absence of inhibitor. The IC50 is the dose of a particular compound inhibiting aggregation by 50% relative to a control lacking the compound. […]

C[C@H](CC(=O)O)NC(=O)CN1CCCC(CCC2CCNCC2)C1=O (stereo partly shown)
IC50: 100 µM

From US5686607A, “Pyridyl ethylation of lactam derivatives” (Merck & Co., Inc., priority 1996, dated 1997)
